Test results as given in patent publication US20080132533A1, “Solid Dispersion Comprising Tacrolimus and Entericcoated Macromolecule” (GL PharmTech Corp., priority 2005, published 2008).
In brackets after ≈: the same amount, converted by molar mass.

Legend:
[1] = background art; mass unit printed as an image character; cited from earlier work
[2] = Dynamic solubility test in water; assay type: physicochemical; settings: thermodynamic from solid, 100 mL water, 37° C., 200 rpm, read-out: Solubility of tacrolimus (mean ± SD)
Description: The excessive specimens were loaded and appropriate aliquots were collected after 0.5, 1, 2, 4, and 8 hours, and the samples were analyzed by high performance liquid chromatography.

SMILES: C=CC[C@@H]1/C=C(\C)C[C@H](C)C[C@H](OC)[C@H]2O[C@@](O)(C(=O)C(=O)N3CCCC[C@H]3C(=O)O[C@H](/C(C)=C/[C@@H]3CC[C@@H](O)[C@H](OC)C3)[C@H](C)[C@@H](O)CC1=O)[C@H](C)C[C@@H]2OC [Control, tacrolimus]
- Solubility of tacrolimus in water [1]: 1˜2 /mL
- solubility at 1 h ([2]; 1 hr): 0.28 ± 0.05 µg/mL (≈ 0.348 µM)
- solubility at 2 h ([2]; 2 hr): 0.68 ± 0.02 µg/mL (≈ 0.846 µM)
- solubility at 4 h ([2]; 4 hr): 0.74 ± 0.01 µg/mL (≈ 0.92 µM)
- solubility at 8 h ([2]; 8 hr): 0.96 ± 0.05 µg/mL (≈ 1.19 µM)
